# Tested on: tubulin
# Test: Tubulin polymerization activity (HTS-Tubulin Polymerization Assay Kit, OD340)
# Format: biochemical
# Settings: absorbance at 340 nm over reaction time; FIG. 1; paclitaxel control 3.7 mg/mL aqueous solution
# From the text: The anticancer agent of the present invention has the structure of paclitaxel or docetaxel, and thus it was conjectured that the compound manifests its anticancer effects by inducing overproduction of tubulin in the same manner as paclitaxel or docetaxel. However, this compound blocks tubulin polymerization in the same manner as vinblastine. The tubulin polymerization activity assay was, as shown in Test Example 1, determined by measuring the absorbance at 340 nm and measuring tubulin polymerization activity.
# Tubulin polymerization activity was measured using the HTS-Tubulin Polymerization Assay Kit (manufactured by Cytoskeleton) with respect to both the reaction solution of the present invention obtained in Example 1 and 3.7 mg/mL aqueous solution of paclitaxel used as a control.
# The horizontal axis in the figure denotes reaction time (min) and the vertical axis represents tubulin polymerization activity (OD340).
smiles,measurement,value
"CC(=O)O[C@H]1C(=O)[C@@]2(C)[C@H]([C@H](OC(=O)c3ccccc3)[C@]3(O)C[C@H](OC(=O)[C@H](O)[C@@H](NC(=O)c4ccccc4)c4ccccc4)C(C)=C1C3(C)C)[C@]1(OC(C)=O)CO[C@@H]1C[C@@H]2O [paclitaxel, Paclitaxel]",tubulin polymerization activity (OD340),tubulin polymerization was stimulated

# Reference: patent US20070025995A1, “Taxoid derivative covalently linked to tumor-specific antibody and a method for preparing the same” (priority 2005, published 2007)
